Assay [1] has as its system alpha-L-Iduronidase W402X in Hurler patient derived fibroblast cells. The experiment in a line: Hurler patient derived fibroblast cell cultures, restored alpha-L-iduronidase activity (W402X readthrough). It counts as cell-based, human. Particulars: Homo sapiens, Fibroblast, 192 h, 8 days incubation, highest concentration 20 uM; for Emax: 14 mM paromomycin = 100% control, read-out: Amax; for AC50: 8 point dilutions. An excerpt:
Activity of compounds of the present invention was examined in patient derived fibroblast cells. The genotyped cells were derived from the Coriell Institute (# GM00798) and contain an in frame homozygous TGG to TAG change at nucleotide 1293 of exon 9 which results in a W402X mutation. The W402X mutation is one of the most common Hurler syndromes causing loss of function mutation. Between 60-70% of genotyped patients contain either the Q70X and/or the W402X in mutation and are classified as severe MPSI patients. This TAG stop codon triplet is permissive to aminoglycoside mediated translational readthrough which served as activity control for compound testing. Readthrough of W402X restores alpha-L-Iduronidase activity which results in removal of lysosomal accumulated Glycosaminoglycan's. Iduronidase expression could neither be detected by Taqman PCR© nor by enzyme activity or ELISA methods without compound stimulation. Compounds were tested in concentration response mode. Therefore 5000 patient cells/40 ul/well in 384 well plates were used. Compound dilutions were derived from freshly prepared 10 mM compound stock solutions. Highest concentration was 20 uM and subsequently diluted 1: 3.16 (8 point dilutions, n=4). Final DMSO concentration was below 0.5% and tested to be without effect on cell viability, growth and readthrough. Cells were incubated for 8 days with one cell media and compound exchange at day 3. Thereafter cell media was removed and cells were lysed (0.4 M Sodiumformate, 0.1% NaN3, 0.9% NaCl, 0.2% Triton, pH 3.5). Restored alpha-L-iduronidase activity in cell lysates was measured with the fluorescent 4-MU iduronide substrate (5 ul of 0.4 mM 4 Methylumbelliferyl alpha-L-iduronide/well) after 48 h incubation. Paromomycin was used as reference control (14 mM=100% control).

In the next assay the test system is CFTR-Y122X. Nature of the assay: CFTR-Y122X assay (dual reporter isogenic Hek293 cell lines, Renilla luminescence readthrough). It is filed as cell-based. The conditions noted are these: Homo sapiens, HEK293, 24 h, nonsense mutation suppression, 24 h incubation, tested up to 100 μM; for Emax: 100% = 14 mM paromomycin, read-out: Amax. An excerpt: Activity of compounds of the present invention was examined in recombinant, dual reporter isogenic Hek293 cell lines (“CFTR-Y122X assay”). The engineered reporter constructs contained the 18 bp sequence stretch corresponding to a common Y122X PTC mutation in CFTR class I mutant patients (see Sermet-Gaudelus, BMC Medicine, 2007, 5(5)). Instead of a tyrosine (Y) in position 122 of the CFTR protein a TGA stop codon interrupts the open reading frame (Y122X) of the corresponding mRNA. This TGA stop codon triplet (followed by the pyrimidine base cytosine) is permissive to aminoglycoside mediated translational readthrough which served as positive control for high throughput screening. A corresponding TAA stop codon variant and a wildtype non mutated construct was used for confirmation and counter screening. The CFTR sequence was sandwiched between an eGFP reporter, and a triple myc tag sequence fused to a full length Renilla reporter. All sequences, including an intron containing one positioned pre-eGFP (b-globin intron) were cloned in frame. The corresponding expression constructs were stably expressed in the isogenic HEK-R4 cell host (Invitrogen Incorp.) and selected by blasticidin resistance. The isogenic integration of the construct minimizes gene dose effects and improves assay reproducibility. Stably integrated single cell derived clones were selected and characterized for aminoglycoside mediated readthrough. […] Readthrough of Y122X accumulates an intracellular localized fusion protein approximately 65.5 kDa in size as controlled by western blot analysis and immunofluorescence using an anti-renilla antibody. The eGFP reporter pre-PTC mutation serves as visual control for genetic stability of the screening clones and minimizes protein degradation of small fusion protein amounts. In the assay, compound concentration was 10 μM. In miniaturized 1536 well format 2000 cells were dispensed in 4 μl/well and incubated for 24 h at 37° C., 5% CO2. 40 nl compounds were placed on the cells with control wells containing 1 ul Paramomycin and 14.4 mM final concentration. Compounds were incubated for 24 h. Renilla Glo substrate (2.5 ul) was added and plates were centrifuged and processed for luminescence measurement using various readers. Activity calculation was done using the equation: A1(%)=100*(S−NC)/(AC−NC) where AC, NC and S correspond to active controls (injection of Stimulation buffer=100% stimulation), neutral controls (buffer injection which Iloprost EC10) and screening samples (S). NC corresponds to 0% activity whereas AC is 100% activity (14 mM paromomycin). False positive artifacts were removed in confirmation and validation screening using the same assay format followed by counterscreening using the respective wildtype construct (w/o PTC mutation) cell model. Compounds were tested up to 100 μM compound concentration.

The AC50 is the midpoint of the concentration-response curve, whichever way the signal moves. The low end stands for activity at low concentration, the high end for activity only at high concentration. In the case of `CC(C)c1nc2c(c(=O)c3c(n2C)CCC3)c(=O)n1-c1ccccc1` [Example 3.4, 2-isopropyl-9-methyl-3-phenyl-7,8-dihydro-3H-cyclopenta[5,6]pyrido[2,3-d]pyrimidine-4,5(6H,9H)-dione], in assay [1], the Emax amounted to 8% and the AC50 was found to be 1.4 µM. In addition, in the assay with CFTR-Y122X, the Emax was 40% and the AC50 came out at 18 µM.
Take `Cc1[nH]c2nc(C(C)C)n(-c3ccccc3)c(=O)c2c(=O)c1C` [Example 3.5, 2-isopropyl-6,7-dimethyl-3-phenylpyrido[2,3-d]pyrimidine-4,5(3H,8H)-dione]: in assay [1], the Emax worked out at 9%. In the assay with CFTR-Y122X, the Emax stood at 114% and the activity was half-maximal at 17 µM (AC50).
For `CC1CCc2c([nH]c3nc(C(C)C)n(-c4ccccc4)c(=O)c3c2=O)C1` (stereo not drawn) [Example 3.6, 2-isopropyl-8-methyl-3-phenyl-6,7,8,9-tetrahydropyrimido[4,5-b]quinoline-4,5(3H,10H)-dione] the same measures were 10%, 46% and 27 µM.
For `Cc1c(C)n(C)c2nc(C(C)C)n(-c3ccccc3)c(=O)c2c1=O` [Example 3.7, 2-isopropyl-6,7,8-trimethyl-3-phenylpyrido[2,3-d]pyrimidine-4,5(3H,8H)-dione] the same measures were 14%, 61% and 22 µM.
Regarding `CC1CCc2[nH]c3nc(C(C)C)n(-c4ccccc4)c(=O)c3c(=O)c2C1` (stereo not drawn) [Example 3.8, 2-isopropyl-7-methyl-3-phenyl-6,7,8,9-tetrahydropyrimido[4,5-b]quinoline-4,5(3H,10H)-dione], in assay [1], the Emax was 12% and the AC50 turned out to be 1.3 µM. Moreover, in the assay on CFTR-Y122X, the Emax stood at 219% and the AC50 turned out to be 12 µM.
Turning to `CC1CCc2c(n(C)c3nc(C(C)C)n(-c4ccccc4)c(=O)c3c2=O)C1` (stereo not drawn) [Example 3.9, 2-isopropyl-8,10-dimethyl-3-phenyl-6,7,8,9-tetrahydropyrimido[4,5-b]quinoline-4,5(3H,10H)-dione], the Emax in assay [1] was 15%. In addition, in the assay with CFTR-Y122X, the Emax stood at 11% and half-maximal activity (AC50) was put at 11 µM.
The like results for `CC1CCc2c(c(=O)c3c(=O)n(-c4ccccc4)c(C(C)C)nc3n2C)C1` (stereo not drawn) [Example 3.10, 2-isopropyl-7,10-dimethyl-3-phenyl-6,7,8,9-tetrahydropyrimido[4,5-b]quinoline-4,5(3H,10H)-dione] were, in that order, 6%, 237% and 12 µM.
Regarding `CC(C)c1nc2c(c(=O)c3c(n2C)CCCC3)c(=O)n1-c1ccccc1` [Example 3.11, 2-isopropyl-10-methyl-3-phenyl-6,7,8,9-tetrahydropyrimido[4,5-b]quinoline-4,5(3H,10H)-dione], in assay [1], the Emax is 17%. Besides, in the assay on CFTR-Y122X, the Emax turned out to be 137% and the AC50 is 22 µM.
As for `Cc1[nH]c2nc(C3CCC3)n(-c3ccccc3)c(=O)c2c(=O)c1C` [Example 3.12, 2-cyclobutyl-6,7-dimethyl-3-phenylpyrido[2,3-d]pyrimidine-4,5(3H,8H)-dione], the Emax was 183% in assay [1] and 505% with CFTR-Y122X. The AC50 came out at 12 µM in assay [1] and 4.9 µM in the assay on CFTR-Y122X.
Consider `Cc1c(C)n(C)c2nc(C3CCC3)n(-c3ccccc3)c(=O)c2c1=O` [Example 3.13, 2-cyclobutyl-6,7,8-trimethyl-3-phenylpyrido[2,3-d]pyrimidine-4,5(3H,8H)-dione], for which the Emax in assay [1] is 34%; in the assay with CFTR-Y122X, 297%. In the assay with CFTR-Y122X, this molecule displayed an AC50 of 9.2 µM.

These data come from patent US9884862B2, “Pyridopyrimidinedione derivatives” (Novartis AG, priority 2014, dated 2018).
